Assay results published in patent US4231928A, “Antibacterial agents” (priority 1979, dated 1980).
Where two headings read alike, the source gives them in different places.

Tests used:
Type in all cases: cell-based
Pseudomonas aeruginosa = assay: Serial twofold agar dilution (Mueller-Hinton agar), P. aeruginosa; conditions: Pseudomonas aeruginosa, Mueller-Hinton agar, read-out: MIC
Experimental: (§1) The Minimum Inhibitory Concentrations (MIC) for sodium 6-[D-(-)-α-phenyl-α-(7-hydroxy-4-oxo-4H-pyrimido[1,2-b]pyridazin-3-ylcarboxamido)acetamido]penicillanate (BB-P598) and sulbenicillin were determined by the serial twofold agar dilution method using Steers' apparatus on Mueller-Hinton agar plates against 31 test organisms for the primary screening (Table 1) and also against 61 strains of Pseudomonas aeruginosa for the secondary evaluation (Table 2).
(§2) Minimum Inhibitory Concentrations (MIC) for sodium 6-[D-(-)-α-phenyl-α-(7-hydroxy-4-oxo-4H-pyrimido[1,2-b]pyridazin-3-ylcarboxamido)acetamido]pencillanate (BB-P598), sodium 6-[D-(-)-α-(4-hydroxyphenyl)-α-(7-hydroxy-4-oxo-4H-pyrimido[1,2-b]pyridazin-3-ylcarboxamido)acetamido]-penicillanate (BB-P642) and carbenicillin were determined by the serial twofold agar dilution method using Steers' apparatus on Mueller-Hinton agar plates against 31 tests organisms (Table 8) and also against 61 strains of Pseudomonas aeruginosa (Table 9). In terms of mean % relative activity compared with carbenicillin, compounds BB-B598 and BB-P642 were 856% and 1319% as active as carbenicillin against the 61 Pseudomonas strains of Table 9.

P. morganii = assay: Serial twofold agar dilution (Mueller-Hinton agar), P. morganii
Experimental: as §1, §2

S. enteritidis = assay: Serial twofold agar dilution (Mueller-Hinton agar), S. enteritidis
Experimental: as §1, §2

S. marcescens = assay: Serial twofold agar dilution (Mueller-Hinton agar), S. marcescens; conditions: Serratia marcescens
Experimental: as §1, §2

S. aureus = assay: Serial twofold agar dilution (Mueller-Hinton agar), S. aureus; conditions: Staphylococcus aureus
Experimental: as §1, §2

P. mirabilis = assay: Serial twofold agar dilution (Mueller-Hinton agar), P. mirabilis; conditions: Proteus mirabilis, P. mirabilis A9900, Mueller-Hinton agar, read-out: MIC
Experimental: as §1, §2

`CC1(C)S[C@@H]2[C@H](NC(=O)[C@H](NC(=O)c3cnc4ccc(O)nn4c3=O)c3ccccc3)C(=O)N2[C@H]1C(=O)O` [BB-P598, sodium 6-[D-(-)-α-phenyl-α-(7-hydroxy-4-oxo-4H-pyrimido[1,2-b]pyridazin-3-ylcarboxamido)acetamido]penicillanate] showed an MIC (Pseudomonas aeruginosa; Pa-26 PS32, Table 9) of 25 mg/L, an MIC (Pseudomonas aeruginosa; Pa-26 Ps32, Table 2) of 1.6 mg/L and an MIC (Pseudomonas aeruginosa; Pa-28 C.P.H. 10527/72, Table 9) of 3.1 mg/L. The MIC (Pseudomonas aeruginosa; Pa-28 CPH10527/72, Table 2) was 6.3 mg/L, the MIC (Pseudomonas aeruginosa; Pa-29 D122, Table 2) was 3.1 mg/L and the MIC (Pseudomonas aeruginosa; Pa-29 D122, Table 9) was 3.1 mg/L. For the same compound, the MIC (Pseudomonas aeruginosa; Pa-30 A20600, Table 2) was 3.1 mg/L, the MIC (Pseudomonas aeruginosa; Pa-30 A20600, Table 9) was 1.6 mg/L and the MIC (Pseudomonas aeruginosa; Pa-31 A20594, Table 2) was 0.8 mg/L. For the same compound, the MIC (Pseudomonas aeruginosa; Pa-31 A20594, Table 9) was 1.6 mg/L, the MIC (Pseudomonas aeruginosa; Pa-32 A20595, Table 2) was 3.1 mg/L and the MIC (Pseudomonas aeruginosa; Pa-32 A20595, Table 9) was 3.1 mg/L. The MIC (Pseudomonas aeruginosa; Pa-33 A20598, Table 2) was 12.5 mg/L, the MIC (Pseudomonas aeruginosa; Pa-33 A20598, Table 9) was 1.6 mg/L and the MIC (Pseudomonas aeruginosa; Pa-34 A20603, Table 2) was 3.1 mg/L. For the same compound, the MIC (Pseudomonas aeruginosa; Pa-34 A20603, Table 9) was 1.6 mg/L, the MIC (Pseudomonas aeruginosa; Pa-35, Table 2) was 12.5 mg/L and the MIC (Pseudomonas aeruginosa; Pa-35, Table 9) was 6.3 mg/L. For the same compound, the MIC (Pseudomonas aeruginosa; Pa-36, Table 2) was 0.4 mg/L, the MIC (Pseudomonas aeruginosa; Pa-36, Table 9) was < 0.2 mg/L and the MIC (Pseudomonas aeruginosa; Pa-37 A20130, Table 2) was 3.1 mg/L. The MIC (Pseudomonas aeruginosa; Pa-37 A20130, Table 9) was 3.1 mg/L, the MIC (Pseudomonas aeruginosa; Pa-38 A20349, Table 2) was 6.3 mg/L and the MIC (Pseudomonas aeruginosa; Pa-38 A20349, Table 9) was 12.5 mg/L. The MIC (Pseudomonas aeruginosa; Pa-39 A20641, Table 2) was 3.1 mg/L, the MIC (Pseudomonas aeruginosa; Pa-39 A20641, Table 9) was 1.6 mg/L and the MIC (Pseudomonas aeruginosa; Pa-41 A21227, Table 2) was 3.1 mg/L. For the same compound, the MIC (Pseudomonas aeruginosa; Pa-41 A21227, Table 9) was 3.1 mg/L, the MIC (Pseudomonas aeruginosa; Pa-42 A21229, Table 2) was 25 mg/L and the MIC (Pseudomonas aeruginosa; Pa-42 A21229, Table 9) was 6.3 mg/L. For the same compound, the MIC (Pseudomonas aeruginosa; Pa-43 A21233, Table 2) was 3.1 mg/L, the MIC (Pseudomonas aeruginosa; Pa-43 A21233, Table 9) was 3.1 mg/L and the MIC (Pseudomonas aeruginosa; Pa-44 A21274, Table 2) was 3.1 mg/L. For the same compound, the MIC (Pseudomonas aeruginosa; Pa-44 A21274, Table 9) was 6.3 mg/L, the MIC (Pseudomonas aeruginosa; Pa-51 A9910, Table 2) was 3.1 mg/L and the MIC (Pseudomonas aeruginosa; Pa-51 A9910, Table 9) was 3.1 mg/L. The MIC (Pseudomonas aeruginosa; Pa-52 A9926, Table 2) was 3.1 mg/L, the MIC (Pseudomonas aeruginosa; Pa-52 A9926, Table 9) was 3.1 mg/L and the MIC (Pseudomonas aeruginosa; Pa-53 A20126, Table 2) was 3.1 mg/L. For the same compound, the MIC (Pseudomonas aeruginosa; Pa-53 A20126, Table 9) was 3.1 mg/L, the MIC (Pseudomonas aeruginosa; Pa-54 A20128, Table 2) was 3.1 mg/L and the MIC (Pseudomonas aeruginosa; Pa-54 A20128, Table 9) was 3.1 mg/L. The MIC (Pseudomonas aeruginosa; Pa-55 A20227, Table 2) was 3.1 mg/L, the MIC (Pseudomonas aeruginosa; Pa-55 A20227, Table 9) was 3.1 mg/L and the MIC (Pseudomonas aeruginosa; Pa-56 A20228, Table 2) was 3.1 mg/L. The MIC (Pseudomonas aeruginosa; Pa-56 A20228, Table 9) was 3.1 mg/L, the MIC (Pseudomonas aeruginosa; Pa-57 A20546, Table 2) was 3.1 mg/L and the MIC (Pseudomonas aeruginosa; Pa-57 A20546, Table 9) was 3.1 mg/L. It also gave an MIC (Pseudomonas aeruginosa; Pa-58 A20557, Table 2) of 6.3 mg/L, an MIC (Pseudomonas aeruginosa; Pa-58 A20557, Table 9) of 6.3 mg/L and an MIC (Pseudomonas aeruginosa; Pa-59 A20574, Table 2) of 6.3 mg/L. The MIC (Pseudomonas aeruginosa; Pa-59 A20574, Table 9) was 1.6 mg/L, the MIC (Pseudomonas aeruginosa; Pa-60 A20602, Table 2) was 1.6 mg/L and the MIC (Pseudomonas aeruginosa; Pa-60 A20602, Table 9) was 1.6 mg/L. For the same compound, the MIC (Pseudomonas aeruginosa; Pa-61 A20726, Table 2) was 6.3 mg/L, the MIC (Pseudomonas aeruginosa; Pa-61 A20726, Table 9) was 3.1 mg/L and the MIC (Pseudomonas aeruginosa; Pa-62 A21213, Table 2) was 12.5 mg/L. For the same compound, the MIC (Pseudomonas aeruginosa; Pa-62 A21213, Table 9) was > 100 mg/L, the MIC (Pseudomonas aeruginosa; Pa-64 A21336, Table 2) was 3.1 mg/L and the MIC (Pseudomonas aeruginosa; Pa-64 A21336, Table 9) was 1.6 mg/L. For the same compound, the MIC (Pseudomonas aeruginosa; Pa-65 A21428, Table 2) was 1.6 mg/L, the MIC (Pseudomonas aeruginosa; Pa-65 A21428, Table 9) was 1.6 mg/L and the MIC (Pseudomonas aeruginosa; Pa-66 A21434, Table 2) was 3.1 mg/L. The MIC (Pseudomonas aeruginosa; Pa-66 A21434, Table 9) was 3.1 mg/L, the MIC (Pseudomonas aeruginosa; Pa-67 A21509, Table 2) was 6.3 mg/L and the MIC (Pseudomonas aeruginosa; Pa-67 A21509, Table 9) was 6.3 mg/L. The MIC (Pseudomonas aeruginosa; Pa-68 A21510, Table 2) was 6.3 mg/L, the MIC (Pseudomonas aeruginosa; Pa-68 A21510, Table 9) was 3.1 mg/L and the MIC (Pseudomonas aeruginosa; Pa-69 A21587, Table 2) was 12.5 mg/L. The MIC (Pseudomonas aeruginosa; Pa-69 A21587, Table 9) was 6.3 mg/L, the MIC (Pseudomonas aeruginosa; Pa-70 K-PS102 (KR-102), Table 9) was 3.1 mg/L and the MIC (Pseudomonas aeruginosa; Pa-70 K-Ps102 (CR-102), Table 2) was 3.1 mg/L. The MIC (P. morganii; Morganella morganii, P. morganii A9553, Table 8, read-out: MIC) was > 100 mg/L, the MIC (P. morganii; P. morganii A9553, Table 1) was > 100 mg/L and the MIC (S. enteritidis; S. enteritidis A9531, Table 1) was 6.3 mg/L. It also gave an MIC (S. enteritidis; Salmonella enterica, S. enteritidis A9531, Table 8, read-out: MIC) of 6.3 mg/L, an MIC (S. marcescens; S. marcescens A20019, Table 1) of 100 mg/L and an MIC (S. marcescens; S. marcescens A20019, Table 8) of 50 mg/L. The MIC (S. aureus; S. aureus A15097, Table 8, read-out: MIC) was > 100 mg/L, the MIC (S. aureus; S. aureus A20239, Table 8, read-out: MIC) was 25 mg/L and the MIC (S. aureus; S. aureus A20240, Table 8, read-out: MIC) was 12.5 mg/L. For the same compound, the MIC (S. aureus; S. aureus A20701, Table 8, read-out: MIC) was > 100 mg/L, the MIC (S. aureus; S. aureus BX-1633 A9606, Table 1, read-out: MIC) was 6.3 mg/L and the MIC (S. aureus; S. aureus BX-1633 A9606, Table 8, read-out: MIC) was 50 mg/L. The MIC (S. aureus; S. aureus BX-1633 A15097, Table 1, read-out: MIC) was 100 mg/L, the MIC (S. aureus; S. aureus BX-1633 A20240, Table 1, read-out: MIC) was 6.3 mg/L and the MIC (S. aureus; S. aureus BX-1633 A20701, Table 1, read-out: MIC) was > 100 mg/L. It also gave an MIC (S. aureus; S. aureus Smith A9537, Table 1, read-out: MIC) of 1.6 mg/L, an MIC (S. aureus; S. aureus Smith A9537, Table 8, read-out: MIC) of 1.6 mg/L and an MIC (S. aureus; S. aureus Smith A20239, Table 1) of 25 mg/L. The MIC (P. mirabilis; Table 1) was 0.2 mg/L and the MIC (P. mirabilis; Table 8) was 6.3 mg/L.
